Patent publication US20220340983A1, “SYSTEMS AND ASSAYS FOR IDENTIFYING PU.1 INHIBITORS” (Massachustts Institute of Technology, priority 2019, published 2022)
pIC50: −log10 of the molar value.

Key:
[1] = tested on: PU.1 dependent gene expression; experiment: RT-qPCR of mRNA levels in BV2 PU.1-Luciferase cells (validation round 3); type: cell-based, mouse; conditions: 2-day treatment
Procedure: The Asinex1 and ChemDiv6 libraries contain molecules with unknown biological properties, but with low toxicity, high stability, and a broad structural diversity used to generate structure-activity-relationships (SAR) of the PU.1 inhibitors. […] In order to obtain the SAR, three rounds of validation were performed. In round 1, false-positive, non-specific luciferase quencher molecules were excluded using the commercially available HEK293 CMV-Luciferase line that constitutively expresses luciferase under the CMV promoter. In round 2, weak (non-significant) hits were eliminated according to degree of PU.1 inhibition in the absence of cell death. In round 3, drugs were selected that reduce PU.1-dependent gene expression with RT-qPCR.

PU.1 = target: T1, PU.1 (Mus musculus, UniProt P17433); experiment: Luciferase assay (luminescence) in BV2 PU.1-Luciferase reporter cells; type: cell-based; conditions: luminescence reduction in BV2 PU.1-Luciferase cells, concentration-response, Hill's equation
T1 construct: endogenous in cells; host or cells: BV2 PU.1-Luciferase (mouse microglial BV2 with a 5xLBB-luciferase reporter integrated at ROSA26)
Excerpt: PU.1 belongs to a group of transcription factors that all bind to the middle 5′-GGAA-3′ sequence. The flanking A/T rich sequence is crucial for conferring PU.1 selective binding. The flanking sequence requires unique structural properties of PU.1 and can therefore be targeted by drugs acting as allosteric inhibitors that prevent PU.1 from binding to the LBB. In order to achieve robust PU.1 binding, five tandem copies of the LBBs (5×LBB) were inserted into the luciferase promoter of the pGL4.23 plasmid. The region containing the five LBBs (5×LBB) was then subcloned into the pROSA26-1 plasmid (together with a PGKneo bpA plasmid for Neomycin/G418 resistance) that allows stable integration in chromosome 6 of the immortalized mouse microglial BV2 cell line (FIG. 2B). The stable cell line was created by selection with G418.
The BV2 PU.1-Luciferase cells (referred to as “cells” from here onward) were plated into a 384-well plate, using an automatic dispenser, 2000 cells per well in 30 μL of media composed of RPMI (Sigma-Aldrich), 10% FBS, 1% PenStrep (50 mg/mL) and 1% G418 (50 mg/mL) was plated. A robotic arm was used to transfer compounds in a 384-well format using a pin array into the plate containing the cells (here, 33 nL was transferred from a drug library containing 10 mM concentration of drugs for a final concentration of 10 μM per well). For reproducibility, each pin array with 384 compounds was added to 4 plates of cells. […] Subsequently, automatic of 30 μL of BrightGlo (Promega) was dispensed into 2 of the 4 plates, in order to lyse the cells and drive the luminescence reaction whereafter the luminescence intensity was measured by a plate reader (Perkin Elmer EnVision). The two other plates were fixed by automatically dispensing 30 μL of 10% formaldehyde with 2μL Hoechst per 1 mL formaldehyde which were left at room temperature for one hour, followed by plate reading (Acumen (TTPLabTech)). A compound transfer and treatment would be repeated if reproducibility between the luminescence plates and/or the fixed Hoechst plates was lacking. The drugs were selected and ranked according to the criteria described in FIG. 13. Luminescence values used were corrected for crosstalk. Hoechst values were total fluorescence area per well. Determination of a positive hit considered both the reduction of luminescence as well as a possible confounding reduction in cell viability. The formula used was y=(value−meanvalue)/stddev. […] Compounds were excluded if cell viability was reduced >2 standard deviations from the mean, using the same formula. The positive hits were then validated in multiple steps in order to identify true PU.1 inhibitors.
The degree of luminescence reduction of the hits was plotted with significant effective area under the curve in order to obtain an IC50.

Row | Compound | mRNA levels Apoe [1] | mRNA levels IL1β [1] | mRNA levels Spi1 [1] | mRNA levels Trem2 [1] | mRNA levels Tyrobp [1] | mRNA levels Lucif. [1] | pIC50 (PU.1)
1 | C[C@H]1C[C@H]2[C@@H]3CCC4=CC(=O)C=C[C@]4(C)[C@@]3(F)[C@@H](O)C[C@]2(C)[C@@]1(O)C(=O)CO [Betamethasone, reference compound] | 1.615 multiples of 1× | 0.379 multiples of 1× | 1.235 multiples of 1× | 1.137 multiples of 1× | 1.079 multiples of 1× |  | 
2 | CC(=O)c1c(C)oc2ccc(N(C(=O)Oc3ccccc3)S(=O)(=O)c3ccc(C(C)(C)C)cc3)cc12 [Compound 1A2] | 0.858 multiples of 1× | 1.054 multiples of 1× | 0.915 multiples of 1× | 1.073 multiples of 1× | 1.093 multiples of 1× | 0.324 multiples of 1× | 5.64
3 | CCOc1ccc(S(=O)(=O)Nc2ccc3c(c2)c(C(C)=O)c(C)n3S(=O)(=O)c2ccc(OCC)cc2)cc1 [Compound 1A5] | 1.200 multiples of 1× | 0.707 multiples of 1× | 0.982 multiples of 1× | 1.085 multiples of 1× | 1.117 multiples of 1× | 0.371 multiples of 1× | 5.53
4 | CC(C)c1ccc(C2Sc3ccccc3NC3=C2C(=O)c2ccccc23)cc1 (stereo not shown) [Compound 1B5] | 0.797 multiples of 1× | 0.843 multiples of 1× | 0.831 multiples of 1× | 0.775 multiples of 1× | 0.697 multiples of 1× | 0.491 multiples of 1× | 5.64
5 | Cc1ccc(-c2nc3cc(C(C)C)ccc3o2)cc1NC(=O)c1cc([N+](=O)[O-])ccc1N1CCOCC1 [Compound 1C4] | 0.883 multiples of 1× | 0.813 multiples of 1× | 1.142 multiples of 1× | 0.928 multiples of 1× | 1.197 multiples of 1× | 0.290 multiples of 1× | 5.61
6 | CCOC(=O)c1ccc(NS(=O)(=O)c2cc(Br)cc3c2N(C(C)=O)C(C)C3)cc1 (stereo not shown) [Compound 1D3] | 0.928 multiples of 1× | 1.144 multiples of 1× | 0.965 multiples of 1× | 1.031 multiples of 1× | 1.102 multiples of 1× | 0.347 multiples of 1× | 5.76
7 | CCn1c(=O)c2cc(C(=O)Nc3cc(OC)c(OC)c(OC)c3)sc2c2ccccc21 [Compound 1G9] | 1.217 multiples of 1× | 0.582 multiples of 1× | 0.989 multiples of 1× | 0.713 multiples of 1× | 1.053 multiples of 1× | 0.485 multiples of 1× | 5.64
8 | CCOC(=O)c1oc2ccc(S(=O)(=O)n3nc(-c4ccccc4OC)cc3N)cc2c1C [Compound 1H7] | 0.908 multiples of 1× | 1.017 multiples of 1× | 1.022 multiples of 1× | 1.100 multiples of 1× | 1.011 multiples of 1× | 0.524 multiples of 1× | 5.63
9 | CCc1ccc(NC(=O)Cn2c(=O)oc3cc(S(=O)(=O)N4CCCCCC4)ccc32)cc1 [Compound 2A7] | 0.886 multiples of 1× | 0.435 multiples of 1× | 0.739 multiples of 1× | 0.942 multiples of 1× | 0.928 multiples of 1× | 0.328 multiples of 1× | 5.44
10 | CC(C)c1ccc(NC(=O)Cn2c(=O)oc3cc(S(=O)(=O)N4CCCC4)ccc32)cc1 [Compound 2A9] | 0.988 multiples of 1× | 1.048 multiples of 1× | 1.073 multiples of 1× | 0.958 multiples of 1× | 1.059 multiples of 1× | 0.391 multiples of 1× | 5.59
11 | CCc1ccc(CNC(=O)C2CCCN(c3nn4cc(-c5ccc(F)cc5)nc4s3)C2)cc1 (stereo not shown) [Compound 2C2] | 1.035 multiples of 1× | 0.954 multiples of 1× | 1.034 multiples of 1× | 1.031 multiples of 1× | 1.130 multiples of 1× | 0.504 multiples of 1× | 6.06
12 | COc1cc(NS(=O)(=O)c2ccc3c(c2)CC(C)N3C(=O)C2CCC2)cc(OC)c1OC (stereo not shown) [Compound 2C3] | 1.133 multiples of 1× | 1.043 multiples of 1× | 0.946 multiples of 1× | 1.179 multiples of 1× | 1.127 multiples of 1× | 0.430 multiples of 1× | 6.47
13 | C[C@@H]1C[C@H]2[C@@H]3CCC4=CC(=O)C=C[C@]4(C)[C@@]3(F)[C@@H](O)C[C@]2(C)[C@@]1(O)C(=O)CO [Dexamethasone, reference compound] | 1.325 multiples of 1× | 1.041 multiples of 1× | 0.955 multiples of 1× | 0.751 multiples of 1× | 1.010 multiples of 1× | 0.373 multiples of 1× | 
14 | C[C@]12CCC(=O)C=C1CC[C@H]1[C@@H]3CC[C@](O)(C(=O)CO)[C@@]3(C)C[C@H](O)[C@@]12F [Fludrocortisone, reference compound] | 1.493 multiples of 1× | 1.764 multiples of 1× | 0.900 multiples of 1× | 0.895 multiples of 1× | 1.082 multiples of 1× | 1.171 multiples of 1× | 
